In US9522908B2, “Ezrin inhibitors and methods of making and using” (Georgetown University, priority 2010, dated 2016):
pKd: −log10 of the molar value.

Columns and labels:
actin = test: SPR binding to actin (negative control); conditions: data not shown
PKC,τ = target: T1, PKC,τ (Homo sapiens, UniProt P41743); test: SPR direct binding to PKC,τ (Biacore); conditions: data not shown
T1 sequence (P41743 1-596): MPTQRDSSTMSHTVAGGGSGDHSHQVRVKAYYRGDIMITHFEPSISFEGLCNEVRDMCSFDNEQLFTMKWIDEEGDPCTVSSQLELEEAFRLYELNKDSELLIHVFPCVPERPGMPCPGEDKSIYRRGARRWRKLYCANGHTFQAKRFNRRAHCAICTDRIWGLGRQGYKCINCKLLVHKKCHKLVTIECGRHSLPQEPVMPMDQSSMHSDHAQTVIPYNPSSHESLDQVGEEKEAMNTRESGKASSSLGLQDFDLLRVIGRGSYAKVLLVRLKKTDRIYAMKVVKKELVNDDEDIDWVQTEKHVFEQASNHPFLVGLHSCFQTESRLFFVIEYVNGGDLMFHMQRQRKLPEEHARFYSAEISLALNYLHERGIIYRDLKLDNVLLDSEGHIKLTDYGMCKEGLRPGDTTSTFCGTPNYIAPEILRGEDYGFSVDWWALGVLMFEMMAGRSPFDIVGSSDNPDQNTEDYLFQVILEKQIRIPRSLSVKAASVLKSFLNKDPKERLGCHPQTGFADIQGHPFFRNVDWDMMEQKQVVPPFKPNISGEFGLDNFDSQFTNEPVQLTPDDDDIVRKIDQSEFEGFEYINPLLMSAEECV

K12 cells = test: Invasion of HUVEC monolayer by K12 cells (ECIS, xCELLigence); type: cell-based
Description: FIG. 3 illustrates NSC305787 and NSC668394 inhibit ezrin mediated invasion of OS cells. (A) Endogenous ezrin protein levels in K12 and K7M2 cells are shown. Equal loading is determined by blotting with an actin antibody. […] Error bars represent standard deviation from duplicate data points. The experiments were performed in duplicates. Cell index is a measurement parameter with no units. In this assay a decrease in cell index represents invasion of HUVEC layer by OS cells. It is measured according to the following formula: Cell index=((Rt−R0)/F where, Rt is resistance at time point t, R0 is background resistance (measured with media alone, no cells), and F is frequency at which measurement is taken (10 kHz).
The anti-invasive potential of NSC305787 and NSC668394 were evaluated by using electric cell impedance sensing (ECIS) on a Roche xCELLigence system (Roche, Indianapolis, Ind.). Briefly, HUVEC cells (25,000/well) were seeded in a 96-well plate in EGM-2 media (Lonza, Basel, CH). Following formation of a confluent HUVEC monolayer (app 32 hrs), EGM-2 media was aspirated and a layer of OS cells (10,000 cells/well) was added in DMEM media containing the compounds. This time point was accepted as 0 hr of treatment and invasion was monitored during the following 6 hrs by measuring changes in resistance at the cell-electrode interphase.

[1] = system: K7M2, K12 and HUVEC cells; test: Toxicity to cells at invasion assay concentrations; type: cell-based; conditions: 1 μM and 10 μM; data not shown
Description: Chemotaxis experiments were performed in 96 well Boyden chamber as described previously (Chen, K., et al., Pediatr. Blood Cancer, 51, 349-355 (2008)). To measure effect of compounds on cellular toxicity, WST viability assay (Roche, Indianapolis, Ind.) was performed in parallel to chemotaxis experiments.

[2] = system: GFP expressing K7M2 OS cells; test: Pulmonary metastasis assay (PuMA), lung organ culture; design: species or system mice; conditions: 10 μM
Description: FIG. 5 illustrates NSC305787 and NSC668394 inhibit OS metastatic growth in lung organ culture. GFP expressing K7M2 OS cells (2×10^5) were injected to tail vein of female BALB/c mice. Within 15 min of tumor cells injection, mice were euthanized and lungs were injected with a mixed agarose/medium solution and then were removed. Complete transverse sections (1-2 mm in thickness) were made from each lobe and 4-5 lung sections were placed on a single 1.5×0.7 cm sterile Gelfoam section. Lung sections were incubated at 37° C. in humidified conditions of 5% CO2. Fresh medium or small molecules (10 μM) were replaced every other day. (A) Quantitation of the fluorescence signal from NSC305787 (10 μM) and NSC668394 (10 μM) treated organ cultures over time. Metastatic burden was quantified by measuring the fluorescent area of metastatic cells in each lung section at each time point and was expressed as mean fluorescent area (mean fluorescent area of each lung section over 4 lung sections). Mean fluorescent area was normalized to 100 pixels for day 0 to allow quantitative evaluation of metastatic progression over time. Data are represented as mean .s.d. from three independent experiments. (B) Fluorescence pictures of a representative culture treated with 10 μM NSC305787 and 10 μM NSC668394 are given on the right panel. […]

[3] = system: K7M2 metastatic OS tumor cells; test: In vivo experimental lung metastasis model, K7M2 cells; design: species or system mice
Description: FIG. 6 illustrates NSC305787 and NSC668394 inhibit in vivo OS metastatic growth in lungs. (A) K7M2 metastatic OS tumor cells (1×10^6) were injected via tail vein. Vehicle (1% DMSO), NSC305787 (240 μg/kg) and NSC668394 (226 μg/kg) were injected 5 days a week intraperitoneally. Kaplan-Meier survival curves show percent survival for NSC305787 and NSC668394 treatment over time. Median survival of vehicle, NSC305787 and NSC668394 treated K7M2 cells were 28.5, 50, and 49 days after tumor cell injection. […] (B) Fluorescence pictures of whole lungs are given. […] (C) GFP expressing ezrin independent MNNG, human OS cells were injected to mice and treated with vehicle (1% DMSO), NSC305787 (240 μg/kg) and NSC668394 (226 μg/kg). Survival of each group is not different probably because MNNG is an ezrin independent cell line. Median survival of vehicle, NSC305787 and NSC668394 treated MNNG cells were 50.5, 49, and 48.5 days after tumor cell injection. (D) Fluorescent images of the lung tissues of this group are given.
GFP expressing K7M2 or MNNG tumor cells (1×10^6) were delivered by tail vein to nude mice. One day after injection, vehicle, NSC305787 (240 μg/kg/inj) and […] (226 μg/kg/inj) were injected 5 days a week intraperitoneally.

For `OC(c1cc(C23CC4CC(CC(C4)C2)C3)nc2c(Cl)cc(Cl)cc12)C1CCCCN1` (centres unmarked) [NSC305787], the pKd (actin) was 4.04, the pKd (PKC,τ) was 3.76 and the “invasion of K12 cells” value (K12 cells; 1 μM) was “did not have any effect”. The “invasion of K12 cells” value (K12 cells; 10 μM) was “did not have any effect”, the “toxicity to K7M2, K12 and HUVEC cells” value [1] was “not toxic” and the “lung metastasis of K7M2 cells in lung organ culture (GFP fluorescence)” value [2] was “significantly inhibited”. For the same compound, the “number of GFP expressing metastatic foci in lung tissues” value ([3]; K7M2 cells) was “significant decrease” and the “median survival after tumor cell injection” value ([3]; K7M2 cells by tail vein, i.p. 5 days a week, vehicle 28.5 days) was 50 days.
